Reference: PubChem BioAssay AID2060904 (Molecular Pharmacology Branch, DTP, NCI, 2025)
pIC50: −log10 of the molar value.

System: 349418-098-R-PDC complex spheroid viability
Assay: Anticancer human tumor 349418-098-R-PDC patient-derived lung adenocarcinoma cell line growth inhibition [RAS]
Conditions: for pIC50: curve of first compound; for viability, T/C: stronger effect = lower value; active means viability on the fitted dose curve at most 10% of control; inactive means the rest
From the text: RAS pathway inhibitors in Combinations in Complex Spheroids
A high-throughput screen of multi-cell type tumor spheroids was designed to identify active combinations of RAS pathway inhibitors and targeted small molecules. Complex spheroids include a stromal component modeled by human endothelial cells (HUVEC) and fibroblasts modeled by human mesenchymal stem cells (MSCs). The concentration ranges selected for each drug and investigational agent were based upon clinically achievable concentrations if the clinical Cmax of the agent was known.
Compounds. The drugs and investigational agents: abemaciclib (NSC768073), cobimetinib (NSC768068), divarasib (GDC6063, NSC841802), docetaxel (NSC628503), GDC-1971 (RLY-1971, NSC841576), gemcitabine (NSC613327), inavolisib (NSC800729), ipatasertib (NSC767898), KB-0742 (NSC834161), MRTX-1133 (NSC836407), osimertinib (NSC779217), RMC-4630 (NSC839698), RMC-6236 (NSC851965), RMC-6291 (NSC852671), Ro-3306 (NSC812927), sapanisertib (NSC764658), SN-38 (NSC673596), staurosporine (NSC755774), SY5609 (NSC837396), and tovorafenib (DAY101, NSC766906), were obtained from the National Cancer Institute (NCI) Developmental Therapeutics Program Chemical Repository. The FDA-approved anticancer drug set is available from the NCI Developmental Therapeutics Program. […] The stock solutions were prepared in dimethyl sulfoxide (DMSO, Sigma-Aldrich, St. Louis, MO, cat. D2650) at 800-fold the tested concentration and stored at -70 degrees C prior to their use. All drugs and investigational agents were tested over a range starting from a high concentration at or near the clinical Cmax and decreasing in half-log increments. If the clinical Cmax for an agent had not been determined, the highest concentration tested was 10 microM.
Cell Culture. All cells were maintained in an incubator at 37 degrees C and 5% CO2 with 95% humidity. The PDC lines were cultured according to standard operating procedures established by the NCI PDMR. All PDCs were thawed and cultured in Matrigel-coated flasks prepared with a working solution of 1X Ham's F-12 nutrient mix, without supplementation (Invitrogen, Waltham, MA, cat. 11765054), 100 U/mL penicillin-streptomycin (Invitrogen, cat. 15140122), and 2.5% Matrigel (Corning Inc., Corning, NY, cat. 354248) for the first three passages. The 362531-283-R-J2-PDC and 782815-120-R-J1-PDC lines were cultured in 6C/Colon 1B media, which includes advanced DMEM/F-12 (Thermo Fisher Scientific, cat. 12634028), 10 mM HEPES (Thermo Fisher Scientific, cat. 15630080), 1X GlutaMAX supplement (Thermo Fisher Scientific, cat. 35050061), 0.1 mg/mL primocin (InvivoGen, San Diego, CA, cat. ant-pm-2), 10% defined fetal bovine serum, heat inactivated (HyClone Laboratories Inc., Logan, UT, cat. SH30070.03HI), 50% L-WRN conditioned media (ATCC, cat. CRL-3276), 1.25 mM N-Acetyl-L-cysteine (Sigma-Aldrich, cat. A9165), 10 mM nicotinamide (Sigma-Aldrich, cat. N0636), 1X B-27 supplement (Thermo Fisher Scientific, cat. 17504044), 1X N-2 supplement (Thermo Fisher Scientific, cat. 17502048), 50 ng/mL human EGF (Thermo Fisher Scientific, cat. PHG0311), and 10 microM Y-27632 dihydrochloride (Tocris Bioscience, cat. 1254). The K12877-001-R-J1-PDC line was cultured in 6I media, which includes all 6C/Colon 1B media plus 10 ng/mL human FGF-10 (PeproTech, cat. 100-26), 1 ng/mL human FGF-2 (PeproTech, cat. 100-18B), 1 µM prostaglandin E2 (Tocris Bioscience, cat. 2296), […] hydrocortisone (Sigma-Aldrich, cat. H4001), and […] bovine insulin (Sigma-Aldrich, cat. I6634). The K86415-001-R-J1-PDC line was cultured in 6D media, which includes all 6C/Colon 1B media components minus the L-WRN conditioned media. The 485176-168-R4-J1-PDC was cultured in PANC media, which includes all 6C/Colon 1B media plus 100 ng/mL human FGF-10 (PeproTech, cat. 100-26), 500 nM SB-431542 (Selleckchem, cat. S1067), and 10 nM gastrin (Tocris Bioscience, cat. 3006). […]
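Further: spheroids exposed to compound for seven days before viability readout.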

CC(C)NCC(C(=O)N1CCN(c2ncnc3c2C(C)CC3O)CC1)c1ccc(Cl)cc1 (configuration not stated) + C#Cc1c(F)ccc2cc(O)cc(-c3ncc4c(N5CC6CCC(C5)N6)nc(OCC56CCCN5CC(F)C6)nc4c3F)c12
6.28: pIC50 (second compound 3.16 µM)
6.46: pIC50 (second compound 1 µM)
active: viability, T/C (second compound 0.0316 µM, first compound 10 µM) 9.07% | viability, T/C (second compound 0.316 µM, first compound 10 µM) 8.74% | viability, T/C (second compound 1 µM, first compound 10 µM) 7.4% | viability, T/C (second compound 10 µM, first compound 10 µM) 3.22%
6.73: pIC50 (second compound 0.316 µM)
6.47: pIC50 (second compound 0.0316 µM)
inactive: viability, T/C (second compound 0.0316 µM, first compound 0.0316 µM) 84% | viability, T/C (second compound 0.0316 µM, first compound 0.1 µM) 59.1% | viability, T/C (second compound 0.0316 µM, first compound 0.316 µM) 60.1% | viability, T/C (second compound 0.0316 µM, first compound 1 µM) 29.7% | viability, T/C (second compound 0.0316 µM, first compound 3.16 µM) 25.2% | viability, T/C (second compound 0.1 µM, first compound 0.0316 µM) 62.7% | viability, T/C (second compound 0.1 µM, first compound 0.1 µM) 78.9% | viability, T/C (second compound 0.1 µM, first compound 0.316 µM) 68.8% | viability, T/C (second compound 0.1 µM, first compound 1 µM) 32.4% | viability, T/C (second compound 0.1 µM, first compound 3.16 µM) 20.9% | viability, T/C (second compound 0.1 µM, first compound 10 µM) 11.5% | viability, T/C (second compound 0.316 µM, first compound 0.0316 µM) 72.6% | viability, T/C (second compound 0.316 µM, first compound 0.1 µM) 46.6% | viability, T/C (second compound 0.316 µM, first compound 0.316 µM) 51.7% | viability, T/C (second compound 0.316 µM, first compound 1 µM) 31.1% | viability, T/C (second compound 0.316 µM, first compound 3.16 µM) 21.5% | viability, T/C (second compound 1 µM, first compound 0.0316 µM) 75% | viability, T/C (second compound 1 µM, first compound 0.1 µM) 54.8% | viability, T/C (second compound 1 µM, first compound 0.316 µM) 62.9% | viability, T/C (second compound 1 µM, first compound 1 µM) 28.8% | viability, T/C (second compound 1 µM, first compound 3.16 µM) 27.3% | viability, T/C (second compound 3.16 µM, first compound 0.0316 µM) 61.9% | viability, T/C (second compound 3.16 µM, first compound 0.1 µM) 75.1% | viability, T/C (second compound 3.16 µM, first compound 0.316 µM) 55.1% | viability, T/C (second compound 3.16 µM, first compound 1 µM) 39.2% | viability, T/C (second compound 3.16 µM, first compound 3.16 µM) 19.7% | viability, T/C (second compound 3.16 µM, first compound 10 µM) 10.7% | viability, T/C (second compound 10 µM, first compound 0.0316 µM) 60.7% | viability, T/C (second compound 10 µM, first compound 0.1 µM) 26.3% | viability, T/C (second compound 10 µM, first compound 0.316 µM) 28.1% | viability, T/C (second compound 10 µM, first compound 1 µM) 47.3% | viability, T/C (second compound 10 µM, first compound 3.16 µM) 16.9%
7.46: pIC50 (second compound 10 µM)
6.24: pIC50 (second compound 0.1 µM)
